Laboratory results published in the supplement of paper PMC10307832.

Key:
Test in all cases: relative viability (nuclei count vs DMSO), 5 days (fraction); higher = more cells survive
[1] = compound: Cc1ccc(Nc2nccc(N(C)c3ccc4c(C)n(C)nc4c3)n2)cc1S(N)(=O)=O [Pazopanib] + Nc1nc2[nH]cc(CCc3ccc(C(=O)N[C@@H](CCC(=O)O)C(=O)O)cc3)c2c(=O)[nH]1 [Pemetrexed] (partner 0.2 µM)
Procedure, shortened: (§1)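 Lung cancer cell lines in 1536-well plates were dosed by pin tool the day after seeding, either with one drug alone or with a fixed anchor-drug dose plus five library-drug doses (not always all listed) in √10 steps. After 5 days, cells were fixed and their nuclei stained in one step (final 0.05% Triton X-100, 1% formaldehyde, 1 ug/ml Hoechst), then counted on 4× images. Relative viability is the nuclei count in treated wells divided by that in vehicle wells. Values are medians of duplicate plates.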

[2] = compound: Cc1ccc(C(=O)Nc2ccc(CN3CCN(C)CC3)c(C(F)(F)F)c2)cc1C#Cc1cnc2cccnn12 [Ponatinib] + COc1cccc2cc(-c3nc([C@H]4CC[C@H](C(=O)O)CC4)n4ncnc(N)c34)[nH]c12 [OSI-027] (partner 0.5 µM)
Procedure, shortened: as §1

[3] = compound: Cc1ccc(Nc2nccc(N(C)c3ccc4c(C)n(C)nc4c3)n2)cc1S(N)(=O)=O [Pazopanib]
Procedure, shortened: (§2)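 In 1536-well plates, lung cancer cell lines rested overnight at 37 °C before five library-drug doses (not always all listed), √10 apart, were pinned onto vehicle-anchored plates. Nuclei were counted with MetaXpress from 4× Hoechst images taken after 5 days without medium change. Viability compares treated-well with vehicle-well nuclei as a median over plates, and plates needed control CV below 25% plus at least one doubling to pass.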

[4] = compound: Cc1ccc(C(=O)Nc2ccc(CN3CCN(C)CC3)c(C(F)(F)F)c2)cc1C#Cc1cnc2cccnn12 [Ponatinib]
Procedure, shortened: as §2

PC-14
relative viability ([1]; first compound 0.01 µM): 0.133
relative viability ([1]; first compound 0.03162 µM): 0.137
relative viability ([1]; first compound 0.1 µM): 0.124
relative viability ([1]; first compound 0.3162 µM): 0.133
relative viability ([1]; first compound 1 µM): 0.126
relative viability ([2]; first compound 0.002 µM): 0.747
relative viability ([2]; first compound 0.006325 µM): 0.778
relative viability ([2]; first compound 0.06325 µM): 0.933
relative viability ([2]; first compound 0.2 µM): 0.699
relative viability ([3]; 0.01 µM): 1.06
relative viability ([3]; 0.03162 µM): 1.07
relative viability ([3]; 0.1 µM): 1.06
relative viability ([3]; 0.3162 µM): 1.1
relative viability ([3]; 1 µM): 1.11
relative viability ([4]; 0.002 µM): 0.887
relative viability ([4]; 0.006325 µM): 0.984
relative viability ([4]; 0.06325 µM): 1.16
relative viability ([4]; 0.2 µM): 0.993

RERF-LC-KJ
relative viability ([1]; first compound 0.01 µM): 0.498
relative viability ([1]; first compound 0.03162 µM): 0.517
relative viability ([1]; first compound 0.1 µM): 0.443
relative viability ([1]; first compound 0.3162 µM): 0.432
relative viability ([1]; first compound 1 µM): 0.541
relative viability ([2]; first compound 0.002 µM): 0.603
relative viability ([2]; first compound 0.006325 µM): 0.576
relative viability ([2]; first compound 0.06325 µM): 0.688
relative viability ([2]; first compound 0.2 µM): 0.522
relative viability ([3]; 0.01 µM): 1.11
relative viability ([3]; 0.03162 µM): 1.03
relative viability ([3]; 0.1 µM): 0.984
relative viability ([3]; 0.3162 µM): 0.919
relative viability ([3]; 1 µM): 0.969
relative viability ([4]; 0.002 µM): 0.926
relative viability ([4]; 0.006325 µM): 1.01
relative viability ([4]; 0.06325 µM): 1.05
relative viability ([4]; 0.2 µM): 0.965

SK-LU-1
relative viability ([1]; first compound 0.01 µM): 0.926
relative viability ([1]; first compound 0.03162 µM): 1.01
relative viability ([1]; first compound 0.1 µM): 1.05
relative viability ([1]; first compound 0.3162 µM): 0.994
relative viability ([1]; first compound 1 µM): 0.911
relative viability ([2]; first compound 0.002 µM): 0.334
relative viability ([2]; first compound 0.006325 µM): 0.345
relative viability ([2]; first compound 0.06325 µM): 0.344
relative viability ([2]; first compound 0.2 µM): 0.248
relative viability ([3]; 0.01 µM): 0.939
relative viability ([3]; 0.03162 µM): 1.09
relative viability ([3]; 0.1 µM): 1.08
relative viability ([3]; 0.3162 µM): 1.05
relative viability ([3]; 1 µM): 1.08
relative viability ([4]; 0.002 µM): 0.943
relative viability ([4]; 0.006325 µM): 1
relative viability ([4]; 0.06325 µM): 1.07
relative viability ([4]; 0.2 µM): 0.928
